Data on one compound can be found in patent US7612211B2, “Benzimidazole TRPV1 inhibitors” (Janssen Pharmaceutica N.V., priority 2006, dated 2009).

Experiment [1] deals with T1, hTRPV1 (Homo sapiens, UniProt Q8NER1).
T1 construct: expressed in transfected cells; host or cells: HEK293
Description: Human TRPV1 [3H]RTX binding assay (membranes of transfected HEK293 cells). The conditions noted are these: inhibition of [3H]RTX binding. On the procedure: Compounds of the present invention were tested for their ability to inhibit the binding of [^3H] RTX to hTRPV1 receptors in a [^3H] RTX binding assay as previously described (See, PCT International Application WO02/33411A1 and Elfrida G. R. et al., J. Pharmacol. Exp. Ther., 2002, 300(1): 9-17.)
HEK293 cells were transfected with hTRPV1 vanilloid receptors and washed with Hank's balanced Salt Solution, dissociated with cell dissociation buffer (Sigma), and then centrifuged at 1000×g for 5 min. Cell pellets were homogenized in cold 20 mM HEPES buffer (pH=7.4), containing 5.8 mM NaCl, 320 mM sucrose, 2 mM MgCl2, 0.75 CaCl2 and 5 mM KCl and centrifuged at 1000×g for 15 min. The resultant supernatant was then centrifuged at 40,000×g for 15 min. The pelleted membranes were stored in a freezer at −80° C.
Approximately 120 μg protein/mL from membranes were incubated with indicated concentrations of [^3H]RTX in 0.5 mL of the HEPES buffer (pH 7.4) containing 0.25 mg/mL fatty acid-free bovine serum albumin at 37° C. for 60 min. […] Bound radioactivity was quantified by scintillation counting. Non-specific binding was measured in the presence of 200 nM unlabeled RTX.
Data were calculated according to the equation: % inhibition=100%×[(total binding−binding)/(total binding−non specific binding)]. Ki values were calculated using a Prism program.

For experiment [2], the target named is T1, hTRPV1. Kind of experiment: Human TRPV1 (hTRPV1) functional assay, FLIPR intracellular Ca2+, capsaicin challenge. It counts as cell-based. The conditions noted are these: HEK293 cells expressing hTRPV1, capsaicin 0.030 μM challenge. The method in brief:
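HEK293 cells expressing the channel, loaded with Calcium 3 dye, were exposed to compounds for 5 min before capsaicin 0.030 μM (~80% maximal). FLIPR Ca2+ read; IC50/EC50 from quadruplicate concentration-response, or percent inhibition at 0.5 μm or 0.2 μm.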

Experiment [3] concerns male Sprague-Dawley rats. Kind of experiment: CFA-induced inflammatory pain, reversal of thermal hyperalgesia (radiant heat paw stimulator). The format is in vivo. The conditions noted are these: Rattus norvegicus, po, 10 mg/kg orally, 24 h after CFA, maximal during the 300 min test, read-out: % Reversal (maximal percent reversal of hypersensitivity). On the procedure: Compounds of the present invention were tested in animal models of inflammation and inflammatory pain. To assess the ability of test compounds to reverse thermal hyperalgesia, baseline response latencies on a radiant heat (RH) paw stimulator were obtained before an intraplantar injection of 100 μL (1 μg/μL) CFA (1:1 CFA:saline) in male Sprague-Dawley rats. Only withdrawal responses that were quick hind paw movements (with or without licking of the hind paw) were recorded. Paw movements associated with locomotion or a shifting of weight were not considered a withdrawal response. The stimulus intensity that produced 10-15 sec baseline withdrawal latencies was used and a maximum cutoff of 20 sec was imposed. Hypersensitivity was evaluated 24 h after CFA.
Following the post-inflammogen latency assessment, rats were orally dosed (2.5 mL/kg) with test compound (10 mg/kg) or vehicle (20% hydroxypropyl beta cyclodextran). To determine the time of peak effect, latencies were redetermined 30, 60, 100, 180 and 300 min after compound administration.
Data are presented as the maximal percent reversal of hypersensitivity obtained during the 300 min test, which was calculated for each animal according to the formula: % reversal=100%×(treatment response−post-inflammogen response)/(pre-inflammogen response−post-inflammogen response)

T1 sequence (Q8NER1 whole entry): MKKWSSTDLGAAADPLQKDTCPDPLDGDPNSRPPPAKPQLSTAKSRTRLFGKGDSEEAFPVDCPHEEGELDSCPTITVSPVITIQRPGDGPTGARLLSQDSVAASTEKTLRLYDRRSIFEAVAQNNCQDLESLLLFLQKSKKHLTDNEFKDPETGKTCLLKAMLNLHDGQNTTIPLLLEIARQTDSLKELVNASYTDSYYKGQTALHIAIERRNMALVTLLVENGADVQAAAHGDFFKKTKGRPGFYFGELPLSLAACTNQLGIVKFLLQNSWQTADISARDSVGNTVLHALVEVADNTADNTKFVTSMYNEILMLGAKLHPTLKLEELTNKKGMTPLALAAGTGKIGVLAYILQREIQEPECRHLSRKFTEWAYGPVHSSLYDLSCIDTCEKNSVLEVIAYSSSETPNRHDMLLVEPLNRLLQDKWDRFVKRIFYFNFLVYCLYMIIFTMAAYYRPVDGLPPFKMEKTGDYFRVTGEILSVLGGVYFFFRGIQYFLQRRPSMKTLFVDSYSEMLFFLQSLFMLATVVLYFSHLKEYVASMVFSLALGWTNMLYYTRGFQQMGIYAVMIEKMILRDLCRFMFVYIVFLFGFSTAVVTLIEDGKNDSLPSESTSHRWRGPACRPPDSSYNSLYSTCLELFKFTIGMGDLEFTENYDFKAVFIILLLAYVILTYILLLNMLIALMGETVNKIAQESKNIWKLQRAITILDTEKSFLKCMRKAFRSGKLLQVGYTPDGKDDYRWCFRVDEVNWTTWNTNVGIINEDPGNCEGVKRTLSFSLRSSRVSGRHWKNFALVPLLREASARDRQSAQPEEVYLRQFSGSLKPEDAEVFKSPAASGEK

Turning to `NS(=O)(=O)c1ccccc1-c1ccc2[nH]c(COc3ccc(C(F)(F)F)cc3)nc2c1` [Cpd 1, 2-[2-(4-trifluoromethyl-phenoxymethyl)-1H-benzoimidazol-5-yl]-benzenesulfonamide], the Ki in experiment [1] was 2.7 nM. In experiment [2] (derived from a variety of test concentrations, read-out: IC50 value (symbol c)), the half-inhibitory concentration (IC50) worked out at 3 nM. Further, in experiment [2] (test concentration of 0.5 μm, read-out: percent inhibition (symbol a)), the inhibition at 0.5 µM was found to be 100%. Also, the inhibition in vivo at 10 mg/kg in experiment [3] was 85%.
